Experimental data published in patent US20240218022A1, “ANTI-VISTA MACROCYCLIC PEPTIDES AND COMPOSITIONS” (BRISTOL-MYERS SQUIBB COMPANY, priority 2022, published 2024).
Positions of bridges follow the written chain, without caps; N, C: chain ends. Non-standard residues stand in square brackets, D forms with d. Residues, ends and D or L forms follow the SMILES beside them. Ahp(2) = CCCCC[C@H](N)C(=O)O; NHexGly = CCCCCCNCC(=O)O; Nle = CCCC[C@H](N)C(=O)O

target: T1, mouse VISTA (mVISTA) (Mus musculus, UniProt Q9D659); assay: Cell-Based Binding High-Content Assay For mVISTA (HC CBA mVISTA); settings: 293T cells expressing mouse VISTA; competition with biotinylated peptide (2 nM); read-out: HC CBA mVISTA IC50
T1 construct: expressed in transfected cells; host or cells: Human embryonic kidney 293T cells
T1 sequence (Q9D659 33-308): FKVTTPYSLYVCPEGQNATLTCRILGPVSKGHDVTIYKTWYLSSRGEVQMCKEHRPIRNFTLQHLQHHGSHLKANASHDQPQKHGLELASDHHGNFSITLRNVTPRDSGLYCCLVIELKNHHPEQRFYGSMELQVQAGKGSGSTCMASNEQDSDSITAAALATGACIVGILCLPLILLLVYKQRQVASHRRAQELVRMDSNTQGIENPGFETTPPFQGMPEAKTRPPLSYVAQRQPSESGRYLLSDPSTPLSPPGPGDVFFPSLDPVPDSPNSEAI
Procedure, shortened: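 Competition of compound with a biotinylated peptide (final 2 nM, 30 min at RT) for binding to mVISTA on 293T cells, run under no-wash or wash (1 h compound preincubation then removal) formats. Readout by Alexa 647–streptavidin imaging on a high-content platform; four-parameter logistic fit gave IC50.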

IC50 | SMILES
0.0386 µM | CCCCCCN1CC(=O)N[C@@H](Cc2ccc(O)cc2)C(=O)N[C@@H](CCCCC)C(=O)N[C@@H](CC(N)=O)C(=O)N[C@@H](CCCNC(=N)N)C(=O)N[C@@H](CC(C)C)C(=O)N[C@@H](CCCCC)C(=O)N2CCC[C@H]2C(=O)N[C@@H](C(C)C)C(=O)N[C@@H](C)C(=O)N[C@H](C(=O)NCC(N)=O)CSCC(=O)N[C@@H](Cc2ccccc2)C(=O)N[C@@H](Cc2ccc(O)cc2)C(=O)N[C@@H](CC(=O)O)C1=O [Example 1006] ({CH2CO}-FYD[NHexGly]Y[Ahp(2)]NRL[Ahp(2)]PVACG-NH2; thioether N-14)
0.0151 µM | CCCCCCN1CC(=O)N[C@@H](Cc2ccc(O)cc2)C(=O)N[C@@H](CCCC)C(=O)NCC(=O)N[C@@H](CCCNC(=N)N)C(=O)N[C@@H](CC(C)C)C(=O)N[C@@H](CCCCC)C(=O)N2CCC[C@H]2C(=O)N[C@@H](C(C)C)C(=O)N[C@@H](C)C(=O)N[C@H](C(=O)NCC(=O)O)CSCC(=O)N[C@@H](Cc2ccccc2)C(=O)N[C@@H](Cc2ccc(O)cc2)C(=O)N[C@@H](CC(=O)O)C1=O [Example 1007] ({CH2CO}-FYD[NHexGly]Y[Nle]GRL[Ahp(2)]PVACG-OH; thioether N-14)
0.0349 µM | CCCCCCN1CC(=O)N[C@@H](Cc2ccc(O)cc2)C(=O)N[C@@H](CC(C)C)C(=O)N[C@@H](CC(N)=O)C(=O)N[C@@H](CCCNC(=N)N)C(=O)N[C@@H](CC(C)C)C(=O)N[C@@H](CCCCC)C(=O)N2CCC[C@H]2C(=O)N[C@@H](C(C)C)C(=O)N[C@@H](C)C(=O)N[C@H](C(=O)NCC(=O)O)CSCC(=O)N[C@@H](Cc2ccccc2)C(=O)N[C@@H](Cc2ccc(O)cc2)C(=O)N[C@@H](CC(=O)O)C1=O [Example 1008] ({CH2CO}-FYD[NHexGly]YLNRL[Ahp(2)]PVACG-OH; thioether N-14)
0.008 µM | CCCCCCN1CC(=O)N[C@@H](Cc2ccc(O)cc2)C(=O)N[C@@H](CCCC)C(=O)NCC(=O)N[C@@H](CCCNC(=N)N)C(=O)N[C@@H](CC(C)C)C(=O)N[C@@H](CCCCC)C(=O)N2CCC[C@H]2C(=O)N[C@@H](C(C)C)C(=O)N[C@@H](CC(=O)O)C(=O)N[C@H](C(=O)NCC(=O)O)CSCC(=O)N[C@@H](Cc2ccccc2)C(=O)N[C@@H](Cc2ccc(O)cc2)C(=O)N[C@@H](CC(=O)O)C1=O [Example 1009] ({CH2CO}-FYD[NHexGly]Y[Nle]GRL[Ahp(2)]PVDCG-OH; thioether N-14)
0.0056 µM | CCCCCCN1CC(=O)N[C@@H](Cc2ccc(O)cc2)C(=O)N[C@@H](CCCC)C(=O)N[C@@H](CC(=O)O)C(=O)N[C@@H](CCCNC(=N)N)C(=O)N[C@@H](CC(C)C)C(=O)N[C@@H](CCCCC)C(=O)N2CCC[C@H]2C(=O)N[C@@H](C(C)C)C(=O)N[C@@H](CC(=O)O)C(=O)N[C@H](C(=O)NCC(=O)O)CSCC(=O)N[C@@H](Cc2ccccc2)C(=O)N[C@@H](Cc2ccc(O)cc2)C(=O)N[C@@H](CC(=O)O)C1=O [Example 1010] ({CH2CO}-FYD[NHexGly]Y[Nle]DRL[Ahp(2)]PVDCG-OH; thioether N-14)
0.0159 µM | CCCCCCN1CC(=O)N[C@@H](Cc2ccc(O)cc2)C(=O)N[C@@H](CC(C)C)C(=O)N[C@@H](CC(N)=O)C(=O)N[C@@H](CCCNC(=N)N)C(=O)N[C@@H](CC(C)C)C(=O)N[C@@H](CCCCC)C(=O)N2CCC[C@H]2C(=O)N[C@@H](C(C)C)C(=O)N[C@@H](CC(=O)O)C(=O)N[C@H](C(=O)NCC(=O)O)CSCC(=O)N[C@@H](Cc2ccccc2)C(=O)N[C@@H](Cc2ccc(O)cc2)C(=O)N[C@@H](CC(=O)O)C1=O [Example 1011] ({CH2CO}-FYD[NHexGly]YLNRL[Ahp(2)]PVDCG-OH; thioether N-14)
0.0211 µM | CCCCCCN1CC(=O)N[C@@H](Cc2ccc(O)cc2)C(=O)N[C@@H](CCCNC(=N)N)C(=O)N[C@@H](CC(N)=O)C(=O)N[C@@H](CCCNC(=N)N)C(=O)N[C@@H](CC(C)C)C(=O)N[C@@H](CCCCC)C(=O)N2CCC[C@H]2C(=O)N[C@@H](C(C)C)C(=O)N[C@@H](CC(=O)O)C(=O)N[C@H](C(=O)NCC(=O)O)CSCC(=O)N[C@@H](Cc2ccccc2)C(=O)N[C@@H](Cc2ccc(O)cc2)C(=O)N[C@@H](CC(=O)O)C1=O [Example 1012] ({CH2CO}-FYD[NHexGly]YRNRL[Ahp(2)]PVDCG-OH; thioether N-14)
